Experimental data: paper PMC3731256, “Optimization of Substituted 6-Salicyl-4-Anilinoquinazoline Derivatives as Dual EGFR/HER2 Tyrosine Kinase Inhibitors” (PLoS ONE, 2013)

Columns and labels:
VEGFR2 = molecular target: T1, VEGFR2 (Homo sapiens, UniProt P35968); test: Tyrosine kinase profiling (Alphascreen), VEGFR2; type: biochemical; conditions: ATP concentration = Km
T1 construct: The cytoplasmic domain of vascular endothelial growth factor receptor 2 (VEGFR2); purchased Millipore Corp
Procedure: (§1) The cytoplasmic domain of vascular endothelial growth factor receptor 2 (VEGFR2), platelet-derived growth factor receptor α (PDGFRα), cSRC were purchased from Millipore Corp. Assays for 3 tyrosine kinases were performed in 384 well plates using the Alphascreen® system (PerkinElmer) at room temperature. Enzyme reactions were performed in 50 mM Tris–HCl, pH7.5, 5 mM MnCl2, 5 mM MgCl2, 0.01% Tween-20, 2 mM dithiothreitol and 0.1 μg/ml biotinylated poly-GluTyr (4:1) containing optimized concentration of enzyme and ATP as described below.
(§2) Prior to the kinase reaction, compound and enzyme were incubated for 5 min at room temperature. The reactions were initiated by adding ATP. After the reaction period as described below at room temperature, the reactions were stopped by the addition of 25 μl of 100 mM EDTA, 10 μg/ml Alphascreen streptavidin donor beads and 10 μg/ml acceptor beads described below in 62.5 mM HEPES, pH 7.4, 250 mM NaCl, and 0.1% BSA. Plates were incubated in the dark for more than 12 h and then read by EnVision 2102 Multilabel Reader (PerkinElmer). The well containing substrate and enzyme without compound was used as total reaction control. […]

MDA-MB-453 cells = test: Antiproliferation WST-1 assay, MDA-MB-453; type: cell-based; conditions: Homo sapiens, breast cancer, HER-2++, PTEN deficiency
Procedure: (§3) WST-1 is better than MTT for analyzing cell proliferation, because it can be reduced to soluble formazan by dehydrogenase in mitochondria and has little toxicity to cells. Cell proliferation was determined using WST-1 dye (Beyotime Inst Biotech, China) according to manufacture’s instructions. Brieﬂy, 5 × 10^3 cells per well were seeded in a 96-well plate, grown at 37 ℃ for 24 h, and then placed in serum-starved conditions for a further 6 h. Subsequently, cells were treated with compounds (Table 1) at increasing concentrations in the presence of 10% FBS for 24 or 48h. After 10 µL WST-1 dye was added to each well, cells were incubated at 37 ℃ for 2 h and the absorbance was ﬁnally determined at 450 nm using a microplate reader.

H1975 cells = test: Antiproliferation WST-1 assay, H1975; type: cell-based; conditions: Homo sapiens, NCI-H1975, NSCLC, EGFR L858R/T790M
Procedure: as §3

A549 cells = test: Antiproliferation WST-1 assay, A549; type: cell-based, human; conditions: WST-1 assay; A549 carcinomic human alveolar basal epithelial cell; read-out: Cellular IC50, A549
Procedure: as §3

A431 cells = test: Antiproliferation WST-1 assay, A431; type: cell-based, human; conditions: Homo sapiens, A-431, WST-1 assay; A431, overexpression of EGFR; read-out: Cellular IC50, A431
Procedure: as §3

human EGFR = molecular target: T2, human EGFR (Homo sapiens, UniProt P00533); test: EGFR kinase assay ([γ-32P] ATP, poly-Glu-Tyr); type: biochemical
T2 construct: the cytoplasmic domain (amino acids 669-1210) of human EGFR; FLAG (DYKDDDD) (N); made in house
Procedure: (§4) The expressed HER2 kinase and EGFR kinase were purified by anti-FLAG M2 affinity gel (Sigma-Aldrich, USA). The HER2 and EGFR kinase assays were performed using radiolabeled [γ-^32P] ATP (GEHealthcare, USA) in 96-well plates. The kinase reactions were performed in 50 mmol/L Tris-HCl, pH7.5, 5 mmol/L MnCl2, 0.01% Tween-20 and 2 mmol/L DTT containing 0.9 μCi of [γ-^32P] ATP per reaction, 50 μmol/L ATP, 5 μg/mL poly-Glu-Tyr (4:1) and 0.25 μg/mL of purified Her2 or EGFR cytoplasmic domain in a total volume of 50 μL. […] Kinase reactions were initiated by adding ATP. After the kinase reaction incubated for 10 minutes at room temperature, reactions were terminated by the addition of 10% (final concentration) trichloroacetic acid. The [γ-^32P]-phosphorylated proteins were filtered in a harvest plate (Millipore, USA) with a cell harvester (PerkinElmer, USA) and washed free of [γ-^32P] ATP with 3% phosphoric acid. The plates were dried, followed by the addition of 25 μL of MicroScintO (PerkinElmer, USA). Radioactivity was counted by a Topcount scintillation counter (PerkinElmer, USA).

human HER2 = molecular target: T3, human HER2 (Homo sapiens, UniProt P04626); test: HER2 kinase assay ([γ-32P] ATP, poly-Glu-Tyr); type: biochemical; conditions: phosphorylation of poly-Glu-Tyr copolymer; mean, >1 determination; read-out: Enzyme activity IC50 against HER2 kinase
T3 construct: The cytoplasmic domain (amino acids 676-1255) of human HER2; FLAG (DYKDDDD) (N); made in house
Procedure: as §4

MCF-7 cells = test: Antiproliferation WST-1 assay, MCF-7; type: cell-based, human; conditions: Homo sapiens, MCF7, WST-1 assay; MCF-7 breast cancer, Her2/neu overexpression; read-out: Cellular IC50, MCF-7
Procedure: as §3

PDGFRα = molecular target: T4, PDGFRα (Homo sapiens, UniProt P16234); test: Tyrosine kinase profiling (Alphascreen), PDGFRα; type: biochemical; conditions: ATP concentration = Km
T4 construct: The cytoplasmic domain of vascular endothelial growth factor receptor 2 (VEGFR2), platelet-derived growth factor receptor α (PDGFRα); purchased Millipore Corp
Procedure: as §1, §2

T2 sequence (P00533 669-1210): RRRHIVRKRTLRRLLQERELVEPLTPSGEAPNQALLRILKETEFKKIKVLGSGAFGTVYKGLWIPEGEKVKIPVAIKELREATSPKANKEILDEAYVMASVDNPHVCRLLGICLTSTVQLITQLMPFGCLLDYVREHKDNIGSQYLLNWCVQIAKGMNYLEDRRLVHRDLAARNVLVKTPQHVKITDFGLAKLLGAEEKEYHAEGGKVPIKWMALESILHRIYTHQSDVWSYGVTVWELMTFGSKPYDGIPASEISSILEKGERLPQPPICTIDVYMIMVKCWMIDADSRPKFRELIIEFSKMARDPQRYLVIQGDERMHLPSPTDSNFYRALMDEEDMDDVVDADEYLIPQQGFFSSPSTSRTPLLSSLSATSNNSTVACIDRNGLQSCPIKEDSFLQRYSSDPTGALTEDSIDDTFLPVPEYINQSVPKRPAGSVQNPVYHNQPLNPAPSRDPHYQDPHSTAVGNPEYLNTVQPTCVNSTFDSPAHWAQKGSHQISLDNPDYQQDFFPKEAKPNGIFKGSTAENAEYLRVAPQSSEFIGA
T1 sequence (P35968 786-1356 limits assumed, species assumed): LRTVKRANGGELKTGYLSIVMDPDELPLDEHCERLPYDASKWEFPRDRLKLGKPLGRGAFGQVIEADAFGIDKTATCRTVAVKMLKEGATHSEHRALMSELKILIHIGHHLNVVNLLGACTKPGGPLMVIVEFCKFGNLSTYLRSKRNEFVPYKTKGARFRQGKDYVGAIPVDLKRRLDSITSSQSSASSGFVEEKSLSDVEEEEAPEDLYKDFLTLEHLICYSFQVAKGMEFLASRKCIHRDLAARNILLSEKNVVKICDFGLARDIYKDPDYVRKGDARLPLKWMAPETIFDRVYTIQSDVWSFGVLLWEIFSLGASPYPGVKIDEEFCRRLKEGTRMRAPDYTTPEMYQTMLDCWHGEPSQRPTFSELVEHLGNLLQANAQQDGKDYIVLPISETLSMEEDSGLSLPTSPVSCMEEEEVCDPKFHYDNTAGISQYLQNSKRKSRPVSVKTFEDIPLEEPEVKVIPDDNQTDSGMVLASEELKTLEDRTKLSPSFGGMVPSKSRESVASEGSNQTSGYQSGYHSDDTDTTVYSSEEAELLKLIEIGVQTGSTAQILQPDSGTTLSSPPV
T4 sequence (P16234 550-1089 limits assumed, species assumed): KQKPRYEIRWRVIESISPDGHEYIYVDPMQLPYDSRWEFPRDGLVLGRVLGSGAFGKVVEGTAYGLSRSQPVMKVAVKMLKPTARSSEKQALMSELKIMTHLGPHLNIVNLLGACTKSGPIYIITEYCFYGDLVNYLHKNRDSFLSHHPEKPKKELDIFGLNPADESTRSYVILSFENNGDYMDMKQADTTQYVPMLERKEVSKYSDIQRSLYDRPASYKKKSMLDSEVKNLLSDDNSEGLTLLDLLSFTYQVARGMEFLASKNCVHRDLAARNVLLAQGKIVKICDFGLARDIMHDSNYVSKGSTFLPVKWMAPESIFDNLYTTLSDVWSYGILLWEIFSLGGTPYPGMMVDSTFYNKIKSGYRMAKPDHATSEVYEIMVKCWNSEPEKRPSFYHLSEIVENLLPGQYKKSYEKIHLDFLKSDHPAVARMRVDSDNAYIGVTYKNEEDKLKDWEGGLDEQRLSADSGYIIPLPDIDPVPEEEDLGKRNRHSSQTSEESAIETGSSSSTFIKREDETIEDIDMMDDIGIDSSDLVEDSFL
T3 sequence (P04626 676-1255): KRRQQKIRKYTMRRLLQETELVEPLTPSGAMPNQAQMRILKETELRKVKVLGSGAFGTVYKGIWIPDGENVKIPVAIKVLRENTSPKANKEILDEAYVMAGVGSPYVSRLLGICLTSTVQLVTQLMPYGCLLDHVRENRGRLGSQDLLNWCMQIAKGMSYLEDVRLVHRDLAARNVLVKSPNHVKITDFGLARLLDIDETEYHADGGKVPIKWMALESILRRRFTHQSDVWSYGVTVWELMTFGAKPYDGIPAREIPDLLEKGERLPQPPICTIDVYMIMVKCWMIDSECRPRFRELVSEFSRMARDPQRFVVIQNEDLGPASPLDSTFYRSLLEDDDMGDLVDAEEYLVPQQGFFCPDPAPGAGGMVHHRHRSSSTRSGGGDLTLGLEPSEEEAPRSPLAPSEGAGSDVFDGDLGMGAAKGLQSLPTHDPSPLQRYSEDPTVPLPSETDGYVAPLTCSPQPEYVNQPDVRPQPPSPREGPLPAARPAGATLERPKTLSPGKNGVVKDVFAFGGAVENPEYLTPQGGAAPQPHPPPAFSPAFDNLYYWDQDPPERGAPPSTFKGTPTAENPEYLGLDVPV

O=C(Nc1ccc2ncnc(Nc3cccc(Br)c3)c2c1)c1ccc(C(F)(F)F)cc1O [Compound 21, N-(4-(3-bromophenylamino)quinazolin-6-yl)-2-hydroxy-4-(trifluoromethyl)benzamide]
IC50 (VEGFR2): 29200 ± 980 nM
IC50 (MDA-MB-453 cells): 920 ± 19 nM
IC50 (H1975 cells): 3300 ± 233 nM
IC50 (A549 cells): 1640 ± 27 nM
melting point: 289 to 291 °C
IC50 (A431 cells): 670 ± 2 nM
pIC50 EGFR (human EGFR; converted from IC50 by online calculator): 6.92
IC50 (human EGFR; phosphorylation of poly-Glu-Tyr copolymer, mean, >1 determination, read-out: Enzyme activity IC50 against EGFR kinase): 120 ± 12 nM
IC50 (human HER2): 96 ± 4 nM
IC50 (MCF-7 cells): 490 ± 18 nM
IC50 (PDGFRα): 17300 ± 60 nM
